{"source": "patent US10004730B2", "about": "“Small molecules targeting androgen receptor nuclear localization and/or level in prostate cancer” (University of Pittsburgh-Of the Commonwealth System of …, priority 2011, dated 2018)", "key": {"[1]": {"system": "castration resistant 22Rv1 xenograft tumors", "assay": "22Rv1 xenograft tumors in castrated SCID mice", "type": "in vivo", "details": "i.p. 25 mg/kg every other day", "method": "FIGS. 15A-B. SID 3712502 inhibited the growth of castration resistant 22Rv1 xenograft tumors (FIG. 15A), but not PC3 tumors (FIG. 15B). 22Rv1 or PC3 tumors were established by s.c. injection of 1×10^6 cells into young adult male SCID mice. SCID mice were castrated and randomized when tumor volume reached ˜400 uL. Mice received i.p. delivery of SID 3712502 (25 mg/kg body weight) or vehicle control EPL every other day, beginning 4 days after castration (injection indicated by arrows). Each group consisted of 10 mice for 22Rv1, and 8 mice for PC3 tumors. Tumor volumes were measured using micro-calipers and calculated using the formula (length×width^2)/2. Black and red lines represent data from the animals treated with vehicle (C) and SID 3712502 (SID), respectively. P value was calculated using a two-way ANOVA with the Bonferrroni correction (GraphPad). Error bars=SEM. **p<0.01."}, "22Rv1 cells": {"system": "22Rv1 cells", "assay": "BrdU incorporation, 22Rv1", "type": "cell-based", "details": "22Rv1, 48 hrs", "method": "(§1) FIGS. 14A-F. Effect of SID 3712502 at indicated concentrations on BrdU incorporation in cultured AR-positive LNCaP (FIG. 14A), C4-2 (FIG. 14B), 22Rv1 (FIG. 14C), LAPC4 (FIG. 14D) cells, and AR-negative DU145 (FIG. 14E) and PC3 (FIG. 14F) cells. Cells were plated in 12-well plates at 2,500 cell per well in RPMI 1640 complete medium. After 24 hrs, the cells were treated with SID 3712502 at the indicated concentrations for 48 hrs and BrdU incorporation was assayed according to manufacturer's instructions (Invitrogen BrdU staining kit; catalog #: 93-3943). The percentage of BrdU-positive cells was determined and then normalized to generate relative BrdU index. Ctrl=DMSO control."}, "[2]": {"system": "C4-2, LNCaP, LAPC-4, PC3 and COS-1 cell lines", "assay": "Cytotoxicity in a panel of cultured cell lines", "type": "cell-based", "method": "The screen identified ˜30 candidate small molecules that can disrupt GFP-AR nuclear localization in the C4-2 stably-transfected cell line. They were tested further to verify they can indeed disrupt AR nuclear localization in C4-2 cells and to determine whether the inhibition of nuclear localization of GFP-AR is mediated through a general inhibition of nuclear import machinery. […] Also, the candidate small molecules were tested for their cytotoxicity using a panel of cultured cell lines.\nOnce the candidate small molecules were identified, they were tested if they indeed can inhibit androgen-independent nuclear localization of GFP-AR and endogenous AR in the C4-2 cells. Also, these agents were tested to see if they are cytotoxic in several different cell lines, including the AR-positive prostate cancer cell lines C4-2, LNCaP, LAPC-4 and AR-negative cell lines PC3 and COS-1 (FIG. 8). These assays led to the identification of 3 agents that specifically target androgen-independent AR nuclear localization in prostate cancer cells and have minimal cytotoxicity on other types of cells."}, "C4-2 cells": {"system": "C4-2 cells", "assay": "BrdU incorporation, C4-2", "type": "cell-based", "details": "C4-2, 48 hrs", "method": "as §1"}, "LAPC4 cells": {"system": "LAPC4 cells", "assay": "BrdU incorporation, LAPC4", "type": "cell-based", "details": "LAPC4, 48 hrs", "method": "as §1"}, "AR": {"system": "AR", "assay": "Western blot of AR protein in prostate cancer cells", "type": "cell-based", "details": "for endogenous AR level (degradation): 48 hrs", "method": "(§2) FIGS. 10A and 10B. Down-regulation of the expression of AR and its downstream target PSA by SID 3712502 in C4-2 (FIG. 10A) and LNCaP (FIG. 10B) cells. Cells in RPMI 1640 complete medium were treated with SID 3712502 or vehicle DMSO at the indicated concentrations for 48 hrs. The cells were then harvested in RIPA buffer for Western blot analysis using antibodies for AR, PSA, and GAPDH. GAPDH was included as a loading control.\n(§3) FIGS. 13A-C. Effect of SID 3712502 on the expression of AR and PSA in 22Rv1 (FIG. 13A) cells. […] The cells in RPMI 1640 complete medium were treated with SID 3712502 or vehicle DMSO at the indicated concentrations (uM) for 48 h. The cells were then harvested in RIPA buffer for Western blot analysis using antibodies for AR, PSA, and GAPDH. GAPDH was included as a loading control. FIG. 13B. SID 3712502 inhibits AR transactivation of PSA-luciferase reporter. C4-2 cells were transfected with PSA6.1-Luc, GFP-AR, and pRL-CMV and then treated with indicated doses of SID 3712502 for 24 hours. FIG. 13C. SID 3712502 inhibits transactivation of PSA-luciferase reporter by AR(1-665), which lacks LBD. PC3 cells were transfected with GFP-NAR and PSA6.1 Luc overnight prior to treatment with 10 μM SID 3712502 (SID) or DMSO (C) for 24 hours. For luciferase assays, cells were lysed with passive lysis buffer (Promega) and both Firefly and Renilla luciferase activities were read using a Dual-Luciferase Reporter Assay kit (Promega) on a LmaxII384 luminometer (Molecular Devices). Firefly luciferase values were normalized to Renilla (pRL-CMV) or protein of cell lysates. Plotted values represent averaged normalized Firefly luciferase activities, each performed in triplicate, relative to DMSO control. One-way ANOVA was performed with a Bonferroni's Multiple Comparison posttest *** p<0.0001 (C). Student's t-test was performed; ***p=0.0002 (D)."}, "GFP-ER": {"molecular_target": "T1, GFP-ER (Homo sapiens, UniProt P03372)", "T1 construct": "expressed in transfected cells; host or cells: C4-2", "T1 sequence (P03372 whole entry)": "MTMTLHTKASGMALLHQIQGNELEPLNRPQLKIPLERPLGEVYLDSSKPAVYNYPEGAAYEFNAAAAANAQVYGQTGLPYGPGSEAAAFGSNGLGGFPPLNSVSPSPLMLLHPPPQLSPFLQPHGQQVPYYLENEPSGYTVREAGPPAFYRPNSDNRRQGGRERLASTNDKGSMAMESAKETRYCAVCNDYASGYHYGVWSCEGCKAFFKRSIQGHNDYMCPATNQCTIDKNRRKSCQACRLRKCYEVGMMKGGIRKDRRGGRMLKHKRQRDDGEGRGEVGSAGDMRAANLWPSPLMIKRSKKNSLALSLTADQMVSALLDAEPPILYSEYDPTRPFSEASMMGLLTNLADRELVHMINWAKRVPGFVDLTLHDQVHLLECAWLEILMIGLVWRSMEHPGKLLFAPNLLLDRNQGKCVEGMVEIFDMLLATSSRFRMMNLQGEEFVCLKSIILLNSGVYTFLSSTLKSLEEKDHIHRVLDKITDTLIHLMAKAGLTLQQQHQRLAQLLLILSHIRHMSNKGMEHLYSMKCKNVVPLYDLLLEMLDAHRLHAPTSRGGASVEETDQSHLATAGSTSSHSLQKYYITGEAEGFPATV", "assay": "GFP-ER nuclear localization in transfected C4-2 cells", "type": "cell-based", "details": "24 hours", "method": "(§4) FIG. 7. The effect of SID 14730725 and SID 3712502 on nuclear localization of GFP-ER (Top panel) and GFP-GR (Bottom panel) in C4-2 cells. C4-2 cells were transfected with GFP-ER or GFP-GR overnight. The following day the cells were treated with different concentrations (uM) of the small molecules. The cells transfected with GFP-GR were co-treated with 0.5 μM Dexamethasone. Cells were imaged 24 hours after the treatment with the small molecules."}, "AR(1-665)": {"system": "AR(1-665)", "assay": "PSA-luciferase reporter, AR(1-665) lacking LBD, PC3 cells", "type": "cell-based", "details": "10 μM, 24 hours", "method": "as §3, with “Student's t-test was performed; ***p=0.0002 (D).” left out"}, "GFP-GR": {"molecular_target": "T2, GFP-GR (Homo sapiens, UniProt P04150)", "T2 construct": "expressed in transfected cells; host or cells: C4-2", "T2 sequence (P04150 whole entry)": "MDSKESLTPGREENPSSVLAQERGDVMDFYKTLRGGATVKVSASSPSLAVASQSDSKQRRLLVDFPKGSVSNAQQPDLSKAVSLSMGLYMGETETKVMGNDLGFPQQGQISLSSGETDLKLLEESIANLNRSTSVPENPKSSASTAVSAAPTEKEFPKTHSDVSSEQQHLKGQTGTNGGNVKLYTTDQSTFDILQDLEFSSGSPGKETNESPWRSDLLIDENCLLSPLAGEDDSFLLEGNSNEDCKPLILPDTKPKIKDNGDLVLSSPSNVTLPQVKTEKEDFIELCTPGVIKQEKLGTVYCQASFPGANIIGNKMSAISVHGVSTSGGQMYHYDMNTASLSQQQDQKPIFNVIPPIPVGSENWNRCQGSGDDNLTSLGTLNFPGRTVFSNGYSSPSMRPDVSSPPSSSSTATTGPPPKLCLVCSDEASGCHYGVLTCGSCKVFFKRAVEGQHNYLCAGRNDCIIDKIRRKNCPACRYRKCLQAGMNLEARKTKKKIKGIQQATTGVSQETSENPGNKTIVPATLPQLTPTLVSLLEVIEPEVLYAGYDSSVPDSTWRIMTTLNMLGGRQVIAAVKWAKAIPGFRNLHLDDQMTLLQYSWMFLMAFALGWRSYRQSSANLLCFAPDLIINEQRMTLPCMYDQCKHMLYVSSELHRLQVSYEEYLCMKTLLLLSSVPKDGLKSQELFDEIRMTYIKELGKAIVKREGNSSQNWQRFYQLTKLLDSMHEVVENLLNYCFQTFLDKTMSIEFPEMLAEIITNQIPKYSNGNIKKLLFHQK", "assay": "GFP-GR nuclear localization in transfected C4-2 cells", "type": "cell-based", "details": "co-treated with 0.5 μM Dexamethasone, 24 hours", "method": "as §4"}, "PSA": {"system": "PSA", "assay": "Western blot of AR target PSA in prostate cancer cells", "type": "cell-based", "method": "as §2\nas §3, with “PC3 cells were transfected with GFP-NAR and PSA6.1 Luc overnight prior to treatment with 10 μM SID 3712502 (SID) or DMSO (C) for 24 hours.” left out, “Firefly luciferase values were normalized to Renilla (pRL-CMV) or protein of cell lysates. Plotted values represent averaged normalized Firefly luciferase activities, each performed in triplicate, relative to DMSO control. One-way ANOVA was performed with a Bonferroni's Multiple Comparison posttest *** p<0.0001 (C). Student's t-test was performed; ***p=0.0002 (D).” left out"}}, "data": [{"smiles": "Cc1cccc(N2CCN(C(=O)CSCc3c(C)noc3C)CC2)c1C", "note": "[SID 3712502, 2-[(3,5-dimethyl-1,2-oxazol-4-yl)methylsulfanyl]-1-[4-(2,3-dimethylphenyl)piperazin-1-yl]ethanone]", "values": [{"measurement": "growth of 22Rv1 xenograft tumor", "setting": "[1]", "result": "significantly inhibited the growth"}, {"measurement": "proliferation (BrdU incorporation)", "setting": "22Rv1 cells", "result": "inhibited the proliferation"}, {"measurement": "cytotoxicity to various cultured cells", "setting": "[2]", "result": "little or no cytotoxicity"}, {"measurement": "proliferation (BrdU incorporation)", "setting": "C4-2 cells", "result": "inhibited the proliferation"}, {"measurement": "proliferation (BrdU incorporation)", "setting": "LAPC4 cells", "result": "inhibited the proliferation"}, {"measurement": "AR protein levels", "setting": "AR; 10-50 uM, 48 h, C4-2 and 22Rv1 cells", "result": "inhibited AR protein levels"}, {"measurement": "endogenous AR level (degradation)", "setting": "AR; C4-2 cells", "result": "can cause degradation of endogenous AR"}, {"measurement": "endogenous AR level (degradation)", "setting": "AR; LNCaP cells", "result": "can cause degradation of endogenous AR"}, {"measurement": "localization of GFP-ER", "setting": "GFP-ER", "result": "no effect"}, {"measurement": "transactivation activity of AR(1-665) (PSA-luciferase)", "setting": "AR(1-665)", "result": "can inhibit the transactivation activity"}, {"measurement": "localization of GFP-GR", "setting": "GFP-GR", "result": "no effect"}, {"measurement": "AR-target gene PSA expression", "setting": "PSA; 2 uM, 48 h, C4-2 and 22Rv1 cells", "result": "significantly inhibited"}, {"measurement": "PSA expression", "setting": "PSA; LNCaP cells, 48 hrs", "result": "Down-regulation"}]}]}
